Experimental data published in patent US20230190873A1, “METHODS AND COMPOSITIONS RELATED TO THE TREATMENT OF NURR1- AND PPARy-MEDIATED CONDITIONS” (The McLean Hospital Corporation, priority 2017, published 2023).
Where “and” joins values, the source holds several entries; their conditions need not be identical. Equal entries are not always repeated. Entries after “also recorded” stand apart in the source; their conditions may differ.

How the values were obtained:
Nurr1-LBD = assay: Nurr1 LBD-dependent luciferase reporter assay in SK-N-BE(2)C cells; format: cell-based; details: GAL4(DBD)-Nurr1(LBD) luciferase reporter
Description: The graph depicts Nurr1-inducing activities by tissue extracts from brain, lung, heart, and kidney. […] The effector plasmid pSVGAL4(DBD)Nurr1(LBD) and the reporter gene for p8XUASL-Luc, together with b-galactosidase expression vector, were transiently transfected into neuroblastoma SK-N-BE(2)C cells. 6 h after transfection, cells were treated with the various tissue extracts for 20 h and the reporter activities were determined by luciferase assay and normalized to the b-galactosidase activity. The basal level of transcriptional activity was normalized to 1. The bars represent means +S.E.M. from three independent experiments.
Graph depicts effects of single or combination treatment with AQ/CQ and prostaglandin (PGE) on Nurr1 activity. As a negative control, human neuroblastoma SK-N-BE(2)C cells transfected with p8XUAS-Luc and pGAL(DBD)Nurr1(LBD) constructs were treated with DMSO alone. As a positive control, cells were treated as described above and harvested 24 h after treatment. An expression vector encoding RSV b-gal was co-transfected to allow normalization for transfection efficiency. Luciferase activity is represented as fold induction after normalization to β-galactosidase compared to cells treated with DMSO alone. Data represent the means ±SEMs of triplicate samples.

PPARγ-LBD = biological target: T1, PPARγ-LBD (Homo sapiens, UniProt P37231); assay: PPARγ-LBD reporter construct transcriptional activation; format: cell-based
T1 construct: fold induction of reporter constructs of Nurr1-LBD, PPARa-LBD, and PPARγ-LBD; expressed in transfected cells
T1 sequence (P37231 238-503 limits assumed): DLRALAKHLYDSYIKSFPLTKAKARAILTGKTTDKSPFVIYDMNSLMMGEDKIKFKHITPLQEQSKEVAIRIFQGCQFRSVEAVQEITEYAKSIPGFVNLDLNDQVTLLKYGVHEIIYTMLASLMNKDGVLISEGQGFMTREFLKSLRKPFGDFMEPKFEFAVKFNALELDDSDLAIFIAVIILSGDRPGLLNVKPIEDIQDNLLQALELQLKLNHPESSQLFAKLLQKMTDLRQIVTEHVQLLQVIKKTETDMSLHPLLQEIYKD
Text: FIG. 13 depicts the fold induction of reporter constructs of Nurr1-LBD, PPARa-LBD, and PPARγ-LBD by different concentrations of PGH1, PGH2, PGJ2, and 15-d-PGJ2. […]

[1] = tested on: MPTP-induced animal model of PD; assay: MPTP-induced animal model of PD; format: in vivo, mice; details: for TH density in the striatum / number of TH+ neurons in the SN: MPTP-treated mice, compared to saline-treated control mice; for latency to fall on a rotating rod (rotarod) / time to descent on the pole (pole test): day 6 following MPTP, compared to saline-treated mice
Text: FIG. 22A depicts a schematic representation of the administration of PGE1 or PGA1 to MPTP-induced animal model of PD. MPTP-treated mice were pre-administrated with PGE1, PGA1 or saline for 3 days before MPTP injection and post-treated for 5 days after MPTP injection.

[2] = tested on: LPS-induced immunoactivated mouse bone marrow-derived macrophages; assay: Pro-inflammatory gene expression in immune-activated mBMMs; format: cell-based; details: LPS- or poly(I:C)-induced immune-activated mBMMs, 18 hrs
Description: FIG. 25 show titrations of prostaglandin A1 (PGA1), A2 (PGA2), E1 (PGE1), E2 (PGE2) in LPS-induced immunoactivated mouse bone marrow-derived macrophages. […] The maximal effective concentration was 20 μM or 10 μg/ml.

[3] = tested on: primary cultured mDA neurons; assay: MPP+ toxicity in primary cultured mDA neurons; format: cell-based; details: MPP+ exposure
Text: MPP+exposure to mDA neurons decreases the number of TH positive dopaminergic neurons.

[4] = tested on: H9, human embryonic stem cell (hESC); assay: Dopaminergic differentiation of H9 hESC (real time PCR); format: cell-based; details: for expression level of Lmx1A / expression level of TH: 15 days of differentiation, compared to vehicle group
Description: After 15 days of differentiation procedure including floor plate induction (day1˜day6), neural precursor induction (day 6˜day 12), and dopaminergic precursor induction (day 12˜day 15), cells were harvested for RNA extraction and cDNA preparation. The real time PCR was performed using cDNA and the matching primers for FoxA2, Lmx1A, and TH to determine the level of dopaminergic differentiation.

PPARa-LBD = biological target: T2, PPARa-LBD (Homo sapiens, UniProt Q07869); assay: PPARa-LBD reporter construct transcriptional activation; format: cell-based
T2 construct: fold induction of reporter constructs of Nurr1-LBD, PPARa-LBD, and PPARγ-LBD; expressed in transfected cells
T2 sequence (Q07869 239-466 limits assumed): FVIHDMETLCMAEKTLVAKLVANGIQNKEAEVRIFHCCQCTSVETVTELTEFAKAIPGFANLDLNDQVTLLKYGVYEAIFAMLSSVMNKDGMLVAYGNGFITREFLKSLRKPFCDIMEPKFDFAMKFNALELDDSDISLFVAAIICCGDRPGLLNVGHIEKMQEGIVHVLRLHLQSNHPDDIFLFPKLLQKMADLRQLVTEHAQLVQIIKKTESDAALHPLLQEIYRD
Text: FIG. 13 depicts the fold induction of reporter constructs of Nurr1-LBD, PPARa-LBD, and PPARγ-LBD by different concentrations of PGH1, PGH2, PGJ2, and 15-d-PGJ2.

Compound: CC/C=C\CC(O)/C=C/C1=C(C/C=C\CCCC(=O)O)C(=O)CC1 (centres unmarked) [PGB3]
- transcriptional activity of Nurr1-LBD (Nurr1-LBD): increases transcriptional activity of Nurr1-LBD in a dose dependent manner

Compound: CC/C=C\C[C@H](O)/C=C/[C@H]1C=CC(=O)[C@@H]1C/C=C\CCCC(=O)O [PGA3]
- transcriptional activity of Nurr1-LBD (Nurr1-LBD): increases transcriptional activity of Nurr1-LBD in a dose dependent manner

Compound: CCCCC[C@H](O)/C=C/[C@H]1[C@H](O)CC(=O)[C@@H]1CCCCCCC(=O)O [PGE1]
- transcriptional activity of Nurr1-LBD (Nurr1-LBD): specifically and prominently activate the transcription function of Nurr1; also recorded: endogenous activators/agonists of Nurr1 function; also recorded: activate the transcriptional activity of Nurr1 in a dose-dependent manner; also recorded: increase transcriptional activity of Nurr1-LBD in a dose dependent manner
- transcriptional activity of PPARγ-LBD (PPARγ-LBD): failed to induce transcriptional activity of PPARγ-LBD
- TH density in the striatum [1]: retain
- number of TH+ neurons in the SN [1]: retain a significant number
- latency to fall on a rotating rod (rotarod) [1]: rescues impaired motor behaviors
- time to descent on the pole (pole test) [1]: rescues impaired motor behaviors
- maximal effective concentration [2]: 20 μM and 10 μg/ml
- suppression of pro-inflammatory genes TNFα, IL-1β, iNOS and IL-6 [2]: induced suppression of pro-inflammatory genes including TNFα, IL-1β, iNOS and IL-6 in a dose-dependent manner
- MPP+-induced loss of TH-positive mDA neurons [3]: significantly rescued the MPP+-induced loss of TH-positive mDA neurons
- TH expression compared with cAMP ([4]; 0.01 mM concentration): dramatic increase of TH expression in 0.01 mM concentration, which was even stronger than cAMP
- expression level of Lmx1A [4]: significantly higher expression level of Lmx1A and TH
- expression level of TH [4]: significantly higher expression level of Lmx1A and TH

Compound: CCCCC[C@H](O)/C=C/[C@H]1C=CC(=O)[C@@H]1CCCCCCC(=O)O [PGA1, prostaglandin A1]
- transcriptional activity of Nurr1-LBD (Nurr1-LBD): increases transcriptional activity of Nurr1-LBD in a dose dependent manner
- TH density in the striatum [1]: retain
- number of TH+ neurons in the SN [1]: retain a significant number
- latency to fall on a rotating rod (rotarod) [1]: rescues impaired motor behaviors
- time to descent on the pole (pole test) [1]: rescues impaired motor behaviors
- maximal effective concentration [2]: 20 μM and 10 μg/ml
- suppression of pro-inflammatory genes TNFα, IL-1β, iNOS and IL-6 [2]: induced suppression of pro-inflammatory genes including TNFα, IL-1β, iNOS and IL-6 in a dose-dependent manner
- MPP+-induced loss of TH-positive mDA neurons [3]: significantly rescued the MPP+-induced loss of TH-positive mDA neurons
- expression level of Lmx1A [4]: significantly higher expression level of Lmx1A and TH
- expression level of TH [4]: significantly higher expression level of Lmx1A and TH

Compound: CCCCC[C@H](O)/C=C/C1=C(C/C=C\CCCC(=O)O)C(=O)CC1 [PGB2]
- transcriptional activity of Nurr1-LBD (Nurr1-LBD): increases transcriptional activity of Nurr1-LBD in a dose dependent manner
- transcriptional activity of PPARγ-LBD (PPARγ-LBD): activate transcriptional function of PPARγ in a dose-dependent manner

Compound: CCCCC[C@H](O)/C=C/[C@H]1C(=O)C=C[C@@H]1C/C=C\CCCC(=O)O [PGJ2]
- transcriptional activity of PPARalpha LBD (PPARa-LBD): robustly activated PPARs
- transcriptional activity of Nurr1-LBD (Nurr1-LBD): not Nurr1 LBD
- transcriptional activity of PPARγ-LBD (PPARγ-LBD): robustly activated PPARs

Compound: CCCCC[C@H](O)/C=C/[C@@H]1[C@@H](CCCCCCC(=O)O)[C@@H](O)C[C@H]1O [PGF2a]
- transcriptional activity of Nurr1-LBD (Nurr1-LBD): activates transcriptional function of Nurr1; also recorded: increases transcriptional activity of Nurr1-LBD in a dose dependent manner
- transcriptional activity of PPARγ-LBD (PPARγ-LBD): failed to induce transcriptional activity of PPARγ-LBD

Compound: CCCCC/C=C/C=C1/C(=O)C=C[C@@H]1C/C=C\CCCC(=O)O [15-d-PGJ2]
- transcriptional activity of PPARalpha LBD (PPARa-LBD): robustly activated PPARs
- transcriptional activity of Nurr1-LBD (Nurr1-LBD): not Nurr1 LBD
- transcriptional activity of PPARγ-LBD (PPARγ-LBD): robustly activated PPARs; also recorded: increases transcriptional activity of PPARγ-LBD

Compound: CCCCC[C@H](O)/C=C/C1C2CC(OO2)C1C/C=C\CCCC(=O)O (some centres unmarked) [PGH2]
- transcriptional activity of Nurr1-LBD (Nurr1-LBD): robustly activate the transcriptional activities of Nurr1 LBD; also recorded: increase transcriptional activity of Nurr1-LBD in a dose dependent manner
- transcriptional activity of PPARγ-LBD (PPARγ-LBD): failed to induce transcriptional activity of PPARγ-LBD

Compound: CC/C=C\C[C@H](O)/C=C/[C@H]1[C@H](O)CC(=O)[C@@H]1C/C=C\CCCC(=O)O [PGE3]
- transcriptional activity of Nurr1-LBD (Nurr1-LBD): specifically and prominently activate the transcription function of Nurr1; also recorded: endogenous activators/agonists of Nurr1 function

Compound: CCCCC[C@H](O)/C=C/[C@H]1OC(O)C[C@H](O)[C@@H]1C/C=C\CCCC(=O)O (some centres unmarked) [TxB2, reference compound]
- transcriptional activity of Nurr1-LBD (Nurr1-LBD): does not activate transcriptional function of Nurr1 and PPARγ; also recorded: failed to induce transcriptional activity of Nurr1-LBD
- transcriptional activity of PPARγ-LBD (PPARγ-LBD): does not activate transcriptional function of Nurr1 and PPARγ; also recorded: failed to induce transcriptional activity of PPARγ-LBD

Compound: CCCCC[C@H](O)/C=C/[C@H]1[C@H](O)CC(=O)[C@@H]1C/C=C\CCCC(=O)O [PGE2]
- transcriptional activity of Nurr1-LBD (Nurr1-LBD): specifically and prominently activate the transcription function of Nurr1; also recorded: endogenous activators/agonists of Nurr1 function; also recorded: activate the transcriptional activity of Nurr1 in a dose-dependent manner; also recorded: increase transcriptional activity of Nurr1-LBD in a dose dependent manner
- transcriptional activity of PPARγ-LBD (PPARγ-LBD): failed to induce transcriptional activity of PPARγ-LBD
- maximal effective concentration [2]: 20 μM and 10 μg/ml
- suppression of pro-inflammatory genes TNFα, IL-1β, iNOS and IL-6 [2]: induced suppression of pro-inflammatory genes including TNFα, IL-1β, iNOS and IL-6 in a dose-dependent manner

Compound: CCCCC[C@H](O)/C=C/C1=C(CCCCCCC(=O)O)C(=O)CC1 [PGB1]
- transcriptional activity of Nurr1-LBD (Nurr1-LBD): increases transcriptional activity of Nurr1-LBD in a dose dependent manner
- transcriptional activity of PPARγ-LBD (PPARγ-LBD): activate transcriptional function of PPARγ in a dose-dependent manner
- expression level of Lmx1A [4]: significantly higher expression level of Lmx1A and TH
- expression level of TH [4]: significantly higher expression level of Lmx1A and TH

Compound: CCCCC[C@H](O)/C=C/[C@H]1C=CC(=O)[C@@H]1C/C=C\CCCC(=O)O [PGA2]
- transcriptional activity of Nurr1-LBD (Nurr1-LBD): increases transcriptional activity of Nurr1-LBD in a dose dependent manner
- maximal effective concentration [2]: 20 μM and 10 μg/ml
- suppression of pro-inflammatory genes TNFα, IL-1β, iNOS and IL-6 [2]: induced suppression of pro-inflammatory genes including TNFα, IL-1β, iNOS and IL-6 in a dose-dependent manner
